Several values for one entry are separate records, joined by “and”; a condition that tells them apart may be missing. Equal entries are not always repeated. Activity calls are given as the source filed them. Bounds are passed on as bounds.

One series addresses Nonstructural protein 1 (Influenza A virus, UniProt Q194T2). Format: functional, Influenza A virus (A/California/07/2009(H1N1)).
For a further series, the system named is H9c2. As to the kind of experiment: cells. As to conditions: Rattus norvegicus, H9c2, Myocardium. Format: functional, cell-based.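 Further: confirmatory concentration-response retest of ultra-high-throughput screening hits for modulation of myocardial damage; cell death induced by hydrogen peroxide oxidative stress; compound pretreatment for 60 min then peroxide exposure for 2 h; potency is for protecting the cells against peroxide damage rather than for killing them.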
The next series deals with Cytochrome P450 2D6 (Homo sapiens, UniProt P10635).
Chain of Cytochrome P450 2D6 (P10635 whole entry): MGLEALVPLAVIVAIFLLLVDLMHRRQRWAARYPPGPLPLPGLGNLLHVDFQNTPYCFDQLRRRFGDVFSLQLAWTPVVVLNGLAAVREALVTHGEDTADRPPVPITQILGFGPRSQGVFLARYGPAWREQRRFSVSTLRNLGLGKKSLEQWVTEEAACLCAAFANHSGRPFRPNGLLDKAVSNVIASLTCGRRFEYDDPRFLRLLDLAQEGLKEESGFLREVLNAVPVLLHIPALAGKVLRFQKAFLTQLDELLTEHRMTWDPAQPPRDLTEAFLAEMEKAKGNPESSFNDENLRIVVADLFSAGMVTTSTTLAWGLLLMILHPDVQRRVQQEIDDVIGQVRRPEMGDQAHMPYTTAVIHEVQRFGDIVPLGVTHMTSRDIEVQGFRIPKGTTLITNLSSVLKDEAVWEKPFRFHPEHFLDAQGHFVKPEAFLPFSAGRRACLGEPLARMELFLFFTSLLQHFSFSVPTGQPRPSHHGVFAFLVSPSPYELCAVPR
Series [1] addresses T1, Cytochrome P450 2C9 (Homo sapiens, UniProt P11712).
Another series deals with T2, Cytochrome P450 1A2 (Homo sapiens, UniProt P05177).
T2 sequence (P05177 whole entry): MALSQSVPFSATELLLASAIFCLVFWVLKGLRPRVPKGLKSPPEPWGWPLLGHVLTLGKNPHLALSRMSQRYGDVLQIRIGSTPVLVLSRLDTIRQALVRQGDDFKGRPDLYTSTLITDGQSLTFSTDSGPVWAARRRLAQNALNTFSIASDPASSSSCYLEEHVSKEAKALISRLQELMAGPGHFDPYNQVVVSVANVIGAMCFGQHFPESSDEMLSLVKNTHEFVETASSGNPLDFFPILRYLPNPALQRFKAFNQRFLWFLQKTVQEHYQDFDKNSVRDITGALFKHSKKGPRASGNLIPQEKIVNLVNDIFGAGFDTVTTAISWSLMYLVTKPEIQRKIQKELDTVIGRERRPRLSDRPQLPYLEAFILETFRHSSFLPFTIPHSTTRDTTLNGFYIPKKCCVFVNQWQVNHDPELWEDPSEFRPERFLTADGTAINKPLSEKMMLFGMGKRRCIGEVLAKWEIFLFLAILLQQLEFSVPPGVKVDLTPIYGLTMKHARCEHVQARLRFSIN

Series [2] has as its target T1, Cytochrome P450 2C9. The source holds these as a separate data set.
In series [3] the target is T3, Cytochrome P450 3A4 (Homo sapiens, UniProt P08684). As to conditions: Potency.
T3 sequence (P08684 whole entry): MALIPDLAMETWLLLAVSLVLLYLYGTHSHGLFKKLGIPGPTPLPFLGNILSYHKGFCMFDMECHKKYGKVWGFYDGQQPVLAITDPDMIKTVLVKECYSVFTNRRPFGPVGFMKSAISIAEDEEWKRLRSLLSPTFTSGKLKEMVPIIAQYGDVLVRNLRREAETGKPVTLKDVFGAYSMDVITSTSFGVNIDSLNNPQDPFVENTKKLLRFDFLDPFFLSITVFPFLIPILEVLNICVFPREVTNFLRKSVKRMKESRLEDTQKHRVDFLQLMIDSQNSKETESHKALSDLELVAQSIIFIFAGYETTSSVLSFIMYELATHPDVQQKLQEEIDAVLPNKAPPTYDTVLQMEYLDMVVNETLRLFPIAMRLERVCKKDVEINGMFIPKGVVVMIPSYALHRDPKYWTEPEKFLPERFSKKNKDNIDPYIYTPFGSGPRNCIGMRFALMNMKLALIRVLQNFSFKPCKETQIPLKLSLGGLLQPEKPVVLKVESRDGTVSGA
Series [4] in a line: toxicity to human hepatoma HepG2 cells – cell-based, cherry-picked samples, cytotoxicity control, dose response (AID 1159577). It is filed as functional.
The nature of series [5]: P. falciparum Dd2 growth inhibitors, dose response, SYBR Green, cherry-picked samples (AID 1159567). It is filed as functional, cell-based.
The target of series [6] is T3, Cytochrome P450 3A4.
Series [7] deals with Vero. In words: cells. The following applies: Chlorocebus sabaeus. It is filed as functional, cell-based.
In the next series the target is T4, Protein skinhead-1 (Caenorhabditis elegans, UniProt P34707).
T4 sequence (P34707 whole entry): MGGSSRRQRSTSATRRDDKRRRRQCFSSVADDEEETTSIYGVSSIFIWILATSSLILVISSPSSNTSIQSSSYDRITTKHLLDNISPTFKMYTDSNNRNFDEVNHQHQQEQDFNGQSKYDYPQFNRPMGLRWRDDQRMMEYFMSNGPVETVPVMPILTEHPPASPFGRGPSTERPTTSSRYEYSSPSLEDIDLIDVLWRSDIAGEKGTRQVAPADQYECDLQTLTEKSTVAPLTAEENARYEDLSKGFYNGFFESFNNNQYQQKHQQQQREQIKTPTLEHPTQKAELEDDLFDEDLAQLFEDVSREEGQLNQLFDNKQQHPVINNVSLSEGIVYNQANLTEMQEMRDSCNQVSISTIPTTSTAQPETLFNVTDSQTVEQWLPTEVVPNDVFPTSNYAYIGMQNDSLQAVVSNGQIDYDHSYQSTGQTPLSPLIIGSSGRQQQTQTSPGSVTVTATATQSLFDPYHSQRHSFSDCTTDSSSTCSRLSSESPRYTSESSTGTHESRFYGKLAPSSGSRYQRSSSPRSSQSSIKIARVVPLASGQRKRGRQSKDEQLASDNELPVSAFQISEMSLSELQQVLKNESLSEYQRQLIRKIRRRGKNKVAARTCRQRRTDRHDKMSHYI
Format: functional.

In the next series the target is T5, Protein RecA (Mycobacterium tuberculosis, UniProt P9WHJ3).
T5 sequence (P9WHJ3 whole entry): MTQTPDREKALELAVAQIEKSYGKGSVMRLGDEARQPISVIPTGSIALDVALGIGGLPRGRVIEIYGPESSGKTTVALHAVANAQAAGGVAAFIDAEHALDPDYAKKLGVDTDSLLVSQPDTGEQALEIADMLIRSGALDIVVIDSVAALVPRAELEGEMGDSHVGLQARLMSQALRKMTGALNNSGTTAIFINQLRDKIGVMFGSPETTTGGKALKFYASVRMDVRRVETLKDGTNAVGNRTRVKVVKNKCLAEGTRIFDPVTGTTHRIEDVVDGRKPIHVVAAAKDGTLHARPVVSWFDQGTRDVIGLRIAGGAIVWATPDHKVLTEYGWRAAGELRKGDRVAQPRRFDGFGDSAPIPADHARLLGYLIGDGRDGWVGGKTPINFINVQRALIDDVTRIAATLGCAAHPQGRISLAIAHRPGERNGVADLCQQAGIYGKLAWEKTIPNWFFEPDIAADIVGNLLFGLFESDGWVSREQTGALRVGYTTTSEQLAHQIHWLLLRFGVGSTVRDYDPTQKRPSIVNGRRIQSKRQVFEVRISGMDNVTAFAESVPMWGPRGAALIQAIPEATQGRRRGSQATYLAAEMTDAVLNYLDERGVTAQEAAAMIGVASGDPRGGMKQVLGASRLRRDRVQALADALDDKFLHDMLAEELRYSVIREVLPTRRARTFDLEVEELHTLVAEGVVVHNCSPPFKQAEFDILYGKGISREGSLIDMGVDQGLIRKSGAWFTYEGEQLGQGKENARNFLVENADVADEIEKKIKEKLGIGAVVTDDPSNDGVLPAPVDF
In words: Fluorescence Cell-Free Homogeneous Dose Retest to Identify Inhibitors of RecA-Intein Splicing Activity. [Related pubchem assays (depositor defined):AID2097, AID2223, AID489010, AID492950]. It is filed as functional.

Series [8] relates to Vero. As to the kind of experiment: cells. It is filed as functional. The following applies: Chlorocebus sabaeus.
Series [9] concerns the target T6, Replicative DNA helicase DnaB (Mycobacterium tuberculosis, UniProt P9WMR3).
T6 sequence (P9WMR3 whole entry): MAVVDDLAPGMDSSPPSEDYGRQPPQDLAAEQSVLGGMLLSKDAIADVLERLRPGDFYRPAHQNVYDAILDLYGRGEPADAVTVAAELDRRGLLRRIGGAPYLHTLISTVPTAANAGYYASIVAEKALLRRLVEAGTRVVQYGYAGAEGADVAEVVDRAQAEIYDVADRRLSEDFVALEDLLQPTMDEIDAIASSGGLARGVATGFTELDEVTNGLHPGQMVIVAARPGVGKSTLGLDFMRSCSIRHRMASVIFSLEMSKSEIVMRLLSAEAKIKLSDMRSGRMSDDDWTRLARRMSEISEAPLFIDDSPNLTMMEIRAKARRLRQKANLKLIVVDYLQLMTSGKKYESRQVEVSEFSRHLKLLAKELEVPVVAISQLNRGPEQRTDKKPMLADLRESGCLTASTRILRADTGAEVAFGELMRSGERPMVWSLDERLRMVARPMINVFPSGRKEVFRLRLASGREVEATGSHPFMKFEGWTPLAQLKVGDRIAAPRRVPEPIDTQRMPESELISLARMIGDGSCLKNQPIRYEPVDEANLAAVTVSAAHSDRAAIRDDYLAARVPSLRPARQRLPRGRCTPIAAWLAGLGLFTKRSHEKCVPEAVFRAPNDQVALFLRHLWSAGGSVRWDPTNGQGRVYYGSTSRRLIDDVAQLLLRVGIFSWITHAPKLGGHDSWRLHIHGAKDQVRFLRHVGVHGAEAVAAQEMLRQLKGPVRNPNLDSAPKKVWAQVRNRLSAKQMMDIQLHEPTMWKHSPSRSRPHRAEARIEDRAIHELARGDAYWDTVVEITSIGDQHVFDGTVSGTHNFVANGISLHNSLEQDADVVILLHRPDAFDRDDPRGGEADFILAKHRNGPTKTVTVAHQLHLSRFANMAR
In words: DnaB intein splicing inhibitors, dose response, biochemical, cell-free fluorescence (AID 449749). It is filed as functional.

Series [10] in a line: Luminescence Cell-Based Dose Retest to Confirm Inhibitors of Cancer Stem Cells. [Related pubchem assays (depositor defined):AID2717, AID2721]. Format: functional. As to conditions: Homo sapiens.
Another series deals with Paired box protein Pax-8 (Homo sapiens, UniProt Q06710). As to the kind of experiment: PAX8 transcriptional activity inhibition in RMG-I – RMG-I cells, luciferase, cherry-pick, dose response (AID 687027).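 Further: luciferase reporter driven by Pax8 target thyroperoxidase promoter measured by SteadyGlo luminescence.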 Format: functional, cell-based.
Chain of Paired box protein Pax-8 (Q06710 whole entry, the tested form may be a part): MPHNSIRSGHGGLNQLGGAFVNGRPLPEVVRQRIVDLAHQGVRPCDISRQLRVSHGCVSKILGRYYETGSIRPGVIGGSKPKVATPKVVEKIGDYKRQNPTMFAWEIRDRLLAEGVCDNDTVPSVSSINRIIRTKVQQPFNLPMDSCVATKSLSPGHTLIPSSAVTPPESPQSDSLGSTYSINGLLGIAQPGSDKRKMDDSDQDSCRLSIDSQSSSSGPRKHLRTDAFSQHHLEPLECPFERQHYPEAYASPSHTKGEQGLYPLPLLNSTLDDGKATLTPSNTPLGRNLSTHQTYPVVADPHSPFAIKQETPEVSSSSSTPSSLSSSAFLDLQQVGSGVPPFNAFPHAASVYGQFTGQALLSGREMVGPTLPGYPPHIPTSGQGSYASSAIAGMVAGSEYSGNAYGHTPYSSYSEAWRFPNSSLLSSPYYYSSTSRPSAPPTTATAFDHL
A short description of series [11]: blockers of HIV-1 envelope-mediated cell-cell fusion – cherry-pick, dose response (AID 652057). It is filed as functional, cell-based.

Chain of Nonstructural protein 1 (Q194T2 whole entry): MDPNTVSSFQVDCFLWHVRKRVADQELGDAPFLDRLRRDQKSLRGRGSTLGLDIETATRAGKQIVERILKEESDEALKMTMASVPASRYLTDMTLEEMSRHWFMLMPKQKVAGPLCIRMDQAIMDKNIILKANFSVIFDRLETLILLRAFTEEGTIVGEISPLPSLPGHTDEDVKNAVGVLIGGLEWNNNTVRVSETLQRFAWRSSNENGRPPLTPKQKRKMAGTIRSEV
T1 sequence (P11712 whole entry): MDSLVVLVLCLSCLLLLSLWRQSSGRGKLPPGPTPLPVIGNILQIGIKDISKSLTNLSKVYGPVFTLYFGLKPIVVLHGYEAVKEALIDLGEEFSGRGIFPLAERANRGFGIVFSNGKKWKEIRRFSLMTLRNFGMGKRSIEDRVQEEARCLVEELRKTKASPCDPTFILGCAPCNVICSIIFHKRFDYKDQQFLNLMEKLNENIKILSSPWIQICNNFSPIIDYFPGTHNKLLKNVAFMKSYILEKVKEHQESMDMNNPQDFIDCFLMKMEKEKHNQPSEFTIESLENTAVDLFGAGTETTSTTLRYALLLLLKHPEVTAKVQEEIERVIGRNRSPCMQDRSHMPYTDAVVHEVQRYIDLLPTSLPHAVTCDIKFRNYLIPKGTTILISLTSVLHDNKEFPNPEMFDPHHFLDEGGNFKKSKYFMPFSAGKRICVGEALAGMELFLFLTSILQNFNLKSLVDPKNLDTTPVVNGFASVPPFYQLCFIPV

Broadly, the IC50 is the midpoint of a concentration-inhibition curve. Regarding `Cc1ccc(OCC(=O)N/N=C/c2cccc3cccnc23)cc1`, the half-inhibitory concentration (IC50) was 25.6 µM (active) on Nonstructural protein 1 and 14.1 µM (active) in the series on H9c2.

For orientation: AC50 means the concentration at which the activity in the assay is half-maximal. Turning to `Cc1[nH]c2ccc(O)cc2c1CCN`, the AC50 is 20 µM (inconclusive) and 39.8 µM (inconclusive) at Cytochrome P450 2D6; 39.8 µM (inconclusive) at Cytochrome P450 2C9 [1]; 31.6 µM (inconclusive) and 20 µM (inconclusive) on Cytochrome P450 1A2; 39.8 µM (inconclusive) at Cytochrome P450 2C9 [2].

As to `C#C[C@]1(OC(C)=O)CCC2C3CCC4=CC(=O)CCC4C3CC[C@]21C` (some centres undefined), the AC50 on Cytochrome P450 3A4 [3] was 39.8 µM (inconclusive).

For `CCC1=C2CC[C@H]3C(=O)N(C)C(=O)[C@H]3[C@H]2[C@@]2(C)C(=O)N(CC(=O)OC)C(=O)N2C1=O`, the AC50 at Cytochrome P450 3A4 [3] is 25.1 µM (inconclusive).

Turning to `c1ccc(-c2cn(C[C@H]3CC[C@@H]([C@@H]4CC[C@H](Cn5cc(-c6ccccn6)nn5)O4)O3)nn2)nc1`, the 50% inhibitory concentration (IC50) on Nonstructural protein 1 is 5.72 µM (active).

As for `N#Cc1cccc(-c2ccc([C@@H]3[C@@H]4CN(C(=O)Nc5ccc(C(F)(F)F)cc5)C[C@H]3N4)cc2)c1`, the AC50 in series [4] was 10.5 µM (active); in series [5], 4.72 µM (active).

Take `CC[C@@H](c1ccccc1)n1c(=O)n2n(c1=O)[C@H]1[C@H](O)[C@H]3O[C@@H]3/C(=N/OC/C=C(\C)CCC=C(C)C)[C@@H]1CC2`: the values for the AC50 result on Cytochrome P450 2C9 [1] and at Cytochrome P450 3A4 [6] were “inconclusive” and 3.98 µM (inconclusive), respectively.

For `Cc1cc(NC(=O)c2ccc3nccnc3c2)ccc1Br`, the IC50 with Vero [7] was > 25 µM (active).

In the case of `COC(=O)[C@]1(C)C[C@H]1[C@H](NP(=O)(c1ccccc1)c1ccccc1)c1ccccc1`, the concentration at half-maximal activity (AC50) at Cytochrome P450 3A4 [3] is 12.6 µM (inconclusive).

In the case of `Cc1cccc(-c2ccc([C@H]3[C@@H](CO)N4CCCCN(S(=O)(=O)c5cccc(C)c5)C[C@H]34)cc2)c1`, the AC50 is 11.6 µM (active) in series [4] and 1.87 µM (active) in [5].

`COc1cc(OC)c(C(C)=O)c(O)c1C`: at Cytochrome P450 3A4 [3], the concentration at half-maximal activity (AC50) was 0.316 µM (inconclusive).

Consider `Cc1ccccc1-c1ccc([C@@H]2[C@@H]3CN(Cc4cccnc4)C[C@H]2N3)cc1`, for which the concentration at half-maximal activity (AC50) is 9.78 µM (active) in series [4] and 1.19 µM (active) in series [5].

Take `COc1ccc(C2COc3c(ccc(O)c3OC)C2)c(OC)c1O` (centres undefined): the concentration at half-maximal activity (AC50) at Cytochrome P450 3A4 [3] is 25.1 µM (inconclusive).

In the case of `N#Cc1ccc(C23CC4(C2)[C@H](CN(P(=O)(c2ccccc2)c2ccccc2)[C@@H]4c2ccccc2)C3c2ccc(Cl)nc2)cc1` (some centres undefined), the AC50 on Cytochrome P450 3A4 [3] was 2 µM (inconclusive).

As for `CCCCN=C(S)NNC(=O)c1csc2c1CCC(C)C2` (centres undefined), the AC50 at Cytochrome P450 2D6 was 22.4 µM (inconclusive); on Cytochrome P450 2C9 [1], “inconclusive”; at Cytochrome P450 3A4 [6], 15.8 µM (inconclusive).

As to `Cc1ccccc1-c1ccc([C@H]2[C@@H]3CN(Cc4cccnc4)C[C@H]2N3)cc1`, the concentration at half-maximal activity (AC50) was 24.4 µM (active) in [4] and 4.95 µM (active) in series [5].

For `CC1=NN(c2ccccc2)C(=O)/C1=C\C=C1/N(C)c2ccccc2C1(C)C`, the IC50 on Nonstructural protein 1 was 11.8 µM (active); at Protein skinhead-1 it was 21.9 µM (active).

The term EC50 denotes the concentration needed to bring the measured effect to its halfway point. In general, CC50 refers to the concentration that lowers cell viability or growth by half. Regarding `COc1cccc(/C=C/C(=O)c2ccc(NS(=O)(=O)c3ccc(C)cc3)cc2)c1`, the EC50 on Protein RecA is 15.4 µM (active). In addition, the CC50 with Vero [8] was 20.4 µM (active). Moreover, the AC50 in series [9] is 9.15 µM (active); in series [10], 2.91 µM (active). Further, in the series with Vero [7], the IC50 is 24 µM (active).

Turning to `C[C@@H]1CN([C@@H](C)CO)C(=O)c2ccccc2-c2ccccc2CO[C@H]1CN(C)Cc1ccccc1C(F)(F)F`, the AC50 on Paired box protein Pax-8 is 12.3 µM (active); in [4], 7.72 µM (active); in [5] it was 2.97 µM (active).

Consider `CO[C@H]1COC(=O)C/C=C\[C@@H](C)COC(=O)[C@H]2CCCN2C(=O)C/C=C\[C@H]1C`, for which the AC50 result at Cytochrome P450 2C9 [1] was “inconclusive”.

Turning to `C[C@H]1CN([C@@H](C)CO)C(=O)Cc2cc(NS(=O)(=O)c3ccccc3)ccc2O[C@@H]1CN(C)Cc1ccc(Cl)c(Cl)c1`, in series [11], the AC50 was 37.1 µM (active).

(Values after ChEMBL document CHEMBL1201862, “PubChem BioAssay data set” (2004).)
